Measured values as given in PMC10385834, “Curcumin Stereoisomer, Cis-Trans Curcumin, as a Novel Ligand to A1 and A3 Adenosine Receptors” (Pharmaceuticals, 2023).

Assays:
[1] = target: T1, A3AR (A3 adenosine receptor) (Homo sapiens, UniProt P0DMS8); experiment: competition with fluorescent ligand CA200623 on transfected CHO-K1 cells; confirmed by confocal microscopy; format: cell-based
T1 construct: gene ADORA3
T1 sequence (P0DMS8 1-318): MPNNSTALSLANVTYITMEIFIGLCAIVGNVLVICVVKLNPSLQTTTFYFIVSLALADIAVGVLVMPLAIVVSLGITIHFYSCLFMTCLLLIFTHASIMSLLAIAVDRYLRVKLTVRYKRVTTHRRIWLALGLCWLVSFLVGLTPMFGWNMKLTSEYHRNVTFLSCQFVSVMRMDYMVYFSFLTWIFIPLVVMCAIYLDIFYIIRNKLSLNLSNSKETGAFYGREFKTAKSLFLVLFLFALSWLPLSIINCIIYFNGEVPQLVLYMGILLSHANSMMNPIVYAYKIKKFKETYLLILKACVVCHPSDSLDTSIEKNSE

[2] = target: T2, A1AR (A1 adenosine receptor) (Homo sapiens, UniProt P30542); experiment: as above; format: cell-based
T2 construct: gene ADORA1
T2 sequence (P30542 1-326): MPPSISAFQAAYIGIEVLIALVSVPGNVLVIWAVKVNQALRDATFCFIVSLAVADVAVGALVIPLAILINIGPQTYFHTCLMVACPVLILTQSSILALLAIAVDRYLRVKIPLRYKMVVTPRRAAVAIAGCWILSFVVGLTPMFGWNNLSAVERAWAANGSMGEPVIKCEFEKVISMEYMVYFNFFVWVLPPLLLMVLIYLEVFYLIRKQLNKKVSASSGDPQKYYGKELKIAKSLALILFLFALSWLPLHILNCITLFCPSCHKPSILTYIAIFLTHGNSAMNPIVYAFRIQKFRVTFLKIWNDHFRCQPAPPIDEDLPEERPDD

Which Ki [1] does the source give for `COc1cc(/C=C\C(=O)CC(=O)/C=C/c2ccc(O)c(OC)c2)ccc1O` [CTCUR, cis-trans curcumin] here?
The Ki was 400 nM.

And the Ki [2]?
Its Ki is 306 nM.
